{"source": "patent US9365522B2", "about": "“Pyrazole amide derivative” (AMGEN INC., priority 2015, dated 2016)", "data": [{"biological_target": "T1, human RORγ-LBD (Homo sapiens, UniProt P51449)", "T1 construct": "made in house; host or cells: E. coli (BL-21)", "T1 sequence (P51449 262-518)": "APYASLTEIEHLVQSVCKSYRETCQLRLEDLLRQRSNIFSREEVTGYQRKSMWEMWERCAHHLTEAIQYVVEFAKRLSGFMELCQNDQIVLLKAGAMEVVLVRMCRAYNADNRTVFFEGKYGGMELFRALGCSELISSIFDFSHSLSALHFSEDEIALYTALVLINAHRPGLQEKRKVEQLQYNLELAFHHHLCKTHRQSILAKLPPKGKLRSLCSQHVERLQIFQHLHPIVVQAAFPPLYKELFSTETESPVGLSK", "test": "ROR gamma coactivator peptide recruitment Alphascreen assay (RORγ-LBD binding to GRIP1 coactivator peptide)", "assay_type": "biochemical", "details": "5 nM human RORγ-LBD, 30 nM 7-β-hydroxycholesterol, 50 nM biotinylated GRIP1 coactivator peptide, overnight incubation at room temperature; read-out: result (pIC50, RORγ coactivator peptide recruitment Alphascreen assay) (converted)", "in_short": "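His/Flag-tagged human RORγ-LBD (aa 262-518, E. coli-expressed, 5 nM) with agonist 7-β-hydroxycholesterol (30 nM) and biotinylated GRIP1 LXXLL peptide (50 nM) in HEPES pH 7.4 buffer, 2.5% DMSO. Compound 1-in-2 dilutions; Alphascreen bead signal read after overnight incubation at room temperature; pIC50 calculated.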", "units": {"IC50": "nM"}, "values": [{"smiles": "Cc1cc(Cl)c(C(=O)CN(CC2CC(C)(C)C2)C(=O)c2cnn([C@H]3CC[C@H](C(=O)O)CC3)c2C(F)(F)F)c(Cl)c1", "note": "[Example 520, trans-4-(4-((2-(2,6-dichloro-4-methylphenyl)-2-oxoethyl)((3,3-dimethylcyclobutyl)methyl)carbamoyl)-5-(trifluoromethyl)-1H-pyrazol-1-yl)cyclohexanecarboxylic acid]", "IC50": 2.51}, {"smiles": "CC1(C)CC(CN(CC(=O)c2c(Cl)cccc2Cl)C(=O)c2cnn([C@H]3CC[C@H](C(=O)O)CC3)c2C(F)(F)F)C1", "note": "[Example 521, trans-4-(4-((2-(2,6-dichlorophenyl)-2-oxoethyl)((3,3-dimethylcyclobutyl)methyl)carbamoyl) 5-(trifluoromethyl)-1H-pyrazol-1-yl)cyclohexanecarboxylic acid]", "IC50": 1.86}, {"smiles": "Cc1cc(Cl)c(C(=O)CN(Cc2cc(F)c(C(F)(F)F)c(F)c2)C(=O)c2cnn([C@H]3CC[C@H](C(=O)O)CC3)c2C(F)(F)F)c(Cl)c1", "note": "[Example 522, trans-4-(4-((2-(2,6-dichloro-4-methylphenyl)-2-oxoethyl)(3,5-difluoro-4-(trifluoromethyl)benzyl)carbamoyl)-5-(trifluoromethyl)-1H-pyrazol-1-yl)cyclohexanecarboxylic acid]", "IC50": 2.09}, {"smiles": "CC(C)(C)CN(CCc1c(Cl)cccc1Cl)C(=O)c1cnn([C@H]2CC[C@H](C(=O)O)CC2)c1C(F)(F)F", "note": "[Example 523, trans-4-(4-((2-(2,6-dichlorophenyl)ethyl)(2,2-dimethylpropyl)carbamoyl)-5-(trifluoromethyl)-1H-pyrazol-1-yl)cyclohexanecarboxylic acid]", "IC50": 8.71}, {"smiles": "CC(C)(C)CN(C[C@H](O)c1c(Cl)cccc1Cl)C(=O)c1cnn([C@H]2CC[C@H](C(=O)O)CC2)c1C(F)(F)F", "note": "[Example 524, trans-4-(4-(((2R)-2-(2,6-dichlorophenyl)-2-hydroxyethyl)(2,2-dimethylpropyl)carbamoyl)-5-(trifluoromethyl)-1H-pyrazol-1-yl)cyclohexanecarboxylic acid]", "IC50": 77.6}, {"smiles": "CC1(C)CCC(N(CC(=O)c2c(Cl)cccc2Cl)C(=O)c2cnn([C@H]3CC[C@H](C(=O)O)CC3)c2C(F)(F)F)CC1", "note": "[Example 525, trans-4-(4-((2-(2,6-dichlorophenyl)-2-oxoethyl)(4,4-dimethylcyclohexyl)carbamoyl)-5-(trifluoromethyl)-1H-pyrazol-1-yl)cyclohexanecarboxylic acid]", "IC50": 5.89}, {"smiles": "O=C(c1cnn([C@H]2CC[C@H](C(=O)O)CC2)c1C(F)(F)F)N(CCc1c(Cl)cccc1Cl)Cc1ccc(C(F)(F)F)cc1", "note": "[Example 526, trans-4-(4-((2-(2,6-dichlorophenyl)ethyl)(4-(trifluoromethyl)benzyl)carbamoyl)-5-(trifluoromethyl)-1H-pyrazol-1-yl)cyclohexanecarboxylic acid]", "IC50": 5.89}, {"smiles": "O=C(CN(Cc1ccc(C(F)(F)F)cc1)C(=O)c1cnn([C@H]2CC[C@H](C(=O)O)CC2)c1C(F)(F)F)c1c(Cl)cccc1Cl", "note": "[Example 527, trans-4-(4-((2-(2,6-dichlorophenyl)-2-oxoethyl)(4-(trifluoromethyl)benzyl)carbamoyl)-5-(trifluoromethyl)-1H-pyrazol-1-yl)cyclohexanecarboxylic acid]", "IC50": 8.32}, {"smiles": "Cc1cc(Cl)c(C(=O)CN(Cc2ccc(C(F)(F)F)cc2)C(=O)c2cnn([C@H]3CC[C@H](C(=O)O)CC3)c2C(F)(F)F)c(Cl)c1", "note": "[Example 528, trans-4-(4-((2-(2,6-dichloro-4-methylphenyl)-2-oxoethyl)(4-(trifluoromethyl)benzyl)carbamoyl)-5-(trifluoromethyl)-1H-pyrazol-1-yl)cyclohexanecarboxylic acid]", "IC50": 4.17}, {"smiles": "CO[C@H](CN(CC(C)(C)C)C(=O)c1cnn([C@H]2CC[C@H](C(=O)O)CC2)c1C(F)(F)F)c1c(Cl)cc(C)cc1Cl", "note": "[Example 530, trans-4-(4-(((2S)-2-(2,6-dichloro-4-methylphenyl)-2-methoxyethyl)(2,2-dimethylpropyl)carbamoyl)-5-(trifluoromethyl)-1H-pyrazol-1-yl)cyclohexanecarboxylic acid]", "IC50": 51.3}, {"smiles": "CO[C@@H](CN(CC(C)(C)C)C(=O)c1cnn([C@H]2CC[C@H](C(=O)O)CC2)c1C(F)(F)F)c1c(Cl)cc(C)cc1Cl", "note": "[Example 531, trans-4-(4-(((2R)-2-(2,6-dichloro-4-methylphenyl)-2-methoxyethyl)(2,2-dimethylpropyl)carbamoyl)-5-(trifluoromethyl)-1H-pyrazol-1-yl)cyclohexanecarboxylic acid]", "IC50": 1070}, {"smiles": "Cc1cc(Cl)c(C(=O)CN(CC2CCC(C)(C)CC2)C(=O)c2cnn([C@H]3CC[C@](C)(C(=O)O)CC3)c2C(F)(F)F)c(Cl)c1", "note": "[Example 532, trans-4-(4-((2-(2,6-dichloro-4-methylphenyl)-2-oxoethyl)((4,4-dimethylcyclohexyl)methyl)carbamoyl)-5-(trifluoromethyl)-1H-pyrazol-1-yl)-1-methylcyclohexanecarboxylic acid]", "IC50": 7.41}, {"smiles": "Cc1cc(Cl)c(C(=O)CN(CC2CCCCC2)C(=O)c2cnn([C@H]3CC[C@](C)(C(=O)O)CC3)c2C(F)(F)F)c(Cl)c1", "note": "[Example 533, trans-4-(4-((cyclohexylmethyl)(2-(2,6-dichloro-4-methylphenyl)-2-oxoethyl)carbamoyl)-5-(trifluoromethyl)-1H-pyrazol-1-yl)-1-methylcyclohexanecarboxylic acid]", "IC50": 1.48}, {"smiles": "CC1(C)CCC(N(CCc2c(Cl)cccc2Cl)C(=O)c2cnn([C@H]3CC[C@H](C(=O)O)CC3)c2C(F)(F)F)CC1", "note": "[Example 534, trans-4-(4-((2-(2,6-dichlorophenyl)ethyl)(4,4-dimethylcyclohexyl)carbamoyl)-5-(trifluoromethyl)-1H-pyrazol-1-yl)cyclohexanecarboxylic acid]", "IC50": 7.94}, {"smiles": "Cc1cc(Cl)c(C(=O)CN(CC2CCC(C)(C)CC2)C(=O)c2cnn([C@H]3CC[C@H](C(=O)O)CC3)c2C(F)(F)F)c(Cl)c1", "note": "[Example 535, trans-4-(4-((2-(2,6-dichloro-4-methylphenyl)-2-oxoethyl)((4,4-dimethylcyclohexyl)methyl)carbamoyl)-5-(trifluoromethyl)-1H-pyrazol-1-yl)cyclohexanecarboxylic acid]", "IC50": 1.32}, {"smiles": "Cc1cc(Cl)c(C(=O)CN(C(=O)c2cnn([C@H]3CC[C@H](C(=O)O)CC3)c2C(F)(F)F)[C@H]2C[C@H](C(C)(C)C)C2)c(Cl)c1", "note": "[Example 536, trans-4-(4-((2-(2,6-dichloro-4-methylphenyl)-2-oxoethyl)(trans-3-(2-methyl-2-propanyl)cyclobutyl)carbamoyl)-5-(trifluoromethyl)-1H-pyrazol-1-yl)cyclohexanecarboxylic acid]", "IC50": 9.55}, {"smiles": "Cc1cc(Cl)c(C(=O)CN(CC2CCCCC2)C(=O)c2cnn([C@H]3CC[C@H](C(=O)O)CC3)c2C(F)(F)F)c(Cl)c1", "note": "[Example 537, trans-4-(4-((cyclohexylmethyl)(2-(2,6-dichloro-4-methylphenyl)-2-oxoethyl)carbamoyl)-5-(trifluoromethyl)-1H-pyrazol-1-yl)cyclohexanecarboxylic acid]", "IC50": 2.24}, {"smiles": "CC(C)(C)CN(CC(=O)c1c(Cl)cnc2ccccc12)C(=O)c1cnn([C@H]2CC[C@](C)(C(=O)O)CC2)c1C(F)(F)F", "note": "[Example 538, trans-4-(4-((2-(3-chloro-4-quinolinyl)-2-oxoethyl)(2,2-dimethylpropyl)carbamoyl)-5-(trifluoromethyl)-1H-pyrazol-1-yl)-1-methylcyclohexanecarboxylic acid]", "IC50": 112}, {"smiles": "O=C(CN(Cc1ccc(F)cc1)C(=O)c1cnn([C@H]2CC[C@H](C(=O)O)CC2)c1C(F)(F)F)c1c(Cl)cnc2ccccc12", "note": "[Example 539, trans-4-(4-((2-(3-chloro-4-quinolinyl)-2-oxoethyl)(4-fluorobenzyl)carbamoyl)-5-(trifluoromethyl)-1H-pyrazol-1-yl)cyclohexanecarboxylic acid]", "IC50": 89.1}, {"smiles": "O=C(CN(Cc1ccc(Cl)cc1)C(=O)c1cnn([C@H]2CC[C@H](C(=O)O)CC2)c1C(F)(F)F)c1c(Cl)ccc(F)c1Cl", "note": "[Example 541, trans-4-(4-((4-chlorobenzyl)(2-(2,6-dichloro-3-fluorophenyl)-2-oxoethyl)carbamoyl)-5-(trifluoromethyl)-1H-pyrazol-1-yl)cyclohexanecarboxylic acid]", "IC50": 3.16}, {"smiles": "Cc1cc(Cl)c(C(=O)CN(CC(C)(C)C)C(=O)c2cnn([C@H]3CC[C@H](C(=O)O)CC3)c2C(F)(F)F)c(Cl)n1", "note": "[Example 542, trans-4-(4-((2-(2,4-dichloro-6-methyl-3-pyridinyl)-2-oxoethyl)(2,2-dimethylpropyl)carbamoyl)-5-(trifluoromethyl)-1H-pyrazol-1-yl)cyclohexanecarboxylic acid]", "IC50": 79.4}, {"smiles": "Cc1cc(Cl)c(C(=O)CN(Cc2ccc(Cl)cc2)C(=O)c2cnn([C@H]3CC[C@H](C(=O)O)CC3)c2C(F)(F)F)c(Cl)n1", "note": "[Example 543, trans-4-(4-((4-chlorobenzyl)(2-(2,4-dichloro-6-methyl-3-pyridinyl)-2-oxoethyl)carbamoyl)-5-(trifluoromethyl)-1H-pyrazol-1-yl)cyclohexanecarboxylic acid]", "IC50": 3.31}, {"smiles": "Cc1cc(C)n(CCN(Cc2ccc(Cl)cc2)C(=O)c2cnn([C@H]3CC[C@H](C(=O)O)CC3)c2C(F)(F)F)c(=O)c1", "note": "[Example 544, trans-4-(4-((4-chlorobenzyl)(2-(4,6-dimethyl-2-oxo-1(2H)-pyridinyl)ethyl)carbamoyl)-5-(trifluoromethyl)-1H-pyrazol-1-yl)cyclohexanecarboxylic acid]", "IC50": 3630}]}]}
